Structures can show the parent of a compound that is named as a salt. Calls of active or inactive are those of the source.
Tests used:
[1] = target: Fructose-bisphosphate aldolase (Mycobacterium tuberculosis, UniProt P9WQA3); assay: Fluorescence-based biochemical high throughput dose response assay for inhibitors of the fructose-bisphosphate aldolase (FBA) of M. tuberculosis.; format: functional
[2] = target: T1, Sentrin-specific protease 1 (Homo sapiens, UniProt Q9P0U3); assay: Dose response confirmation of small molecule inhibitors of the catalytic domain of the SUMO protease, SENP1 in a FRET assay.; format: functional; settings: read-out: IC50_Mean
T1 sequence (Q9P0U3 whole entry): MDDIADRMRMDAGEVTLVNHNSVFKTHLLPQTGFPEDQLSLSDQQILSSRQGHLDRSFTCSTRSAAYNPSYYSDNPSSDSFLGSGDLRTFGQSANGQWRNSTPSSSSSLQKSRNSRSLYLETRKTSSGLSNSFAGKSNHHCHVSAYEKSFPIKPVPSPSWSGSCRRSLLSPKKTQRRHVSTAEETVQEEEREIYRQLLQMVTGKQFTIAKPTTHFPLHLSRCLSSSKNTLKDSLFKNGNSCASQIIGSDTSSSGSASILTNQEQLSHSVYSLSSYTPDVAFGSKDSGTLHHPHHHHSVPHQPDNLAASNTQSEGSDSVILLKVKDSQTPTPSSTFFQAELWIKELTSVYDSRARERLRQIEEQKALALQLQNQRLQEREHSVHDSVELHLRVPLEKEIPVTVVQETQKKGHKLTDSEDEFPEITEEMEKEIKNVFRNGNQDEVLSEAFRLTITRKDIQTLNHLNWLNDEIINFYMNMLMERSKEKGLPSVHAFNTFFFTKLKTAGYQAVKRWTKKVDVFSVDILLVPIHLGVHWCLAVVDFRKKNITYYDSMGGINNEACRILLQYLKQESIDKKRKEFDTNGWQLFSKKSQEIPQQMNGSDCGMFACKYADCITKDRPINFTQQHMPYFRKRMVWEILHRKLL

[3] = target: T1, Sentrin-specific protease 1; assay: SENP1 catalytic domain blockers, concentration series – biochemical, kinetic FRET, dose response (AID 651697); format: functional; settings: read-out: IC50_Mean
[4] = activation of miR-122 Renilla sensor silencing – cell-based, Huh7 psiCHECK-miR122, Renilla luciferase, cherry-picked, dose response (AID 651956); format: functional;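 note: huh7 hepatoma cells stably carrying a psiCHECK-2 miR-122 sensor plasmid; renilla luciferase signal reporting endogenous miR-122 activity after 48 h compound exposure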
[5] = Counterscreen for inhibitors of Trypanosoma brucei methionyl tRNA synthetase (MetRS): Luminescence-based cell-based high throughput dose response assay to identify compounds that are cytotoxic to Jurkat human T lymphocyte cells.; format: functional
[6] = viability loss of HMLE_sh_eGFP cells – cell-based, luminescence, counter-screen for HMLE_sh_ECad selective toxicity project, dose response (AID 463074); format: functional, Homo sapiens;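 note: HMLE human mammary epithelial cells expressing control shRNA against eGFP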
[7] = target: T2, Methionyl-tRNA synthetase, putative (Trypanosoma brucei brucei, UniProt Q38C91); format: functional, Trypanosoma brucei brucei strain 927/4 GUTat10.1
T2 sequence (Q38C91 whole entry): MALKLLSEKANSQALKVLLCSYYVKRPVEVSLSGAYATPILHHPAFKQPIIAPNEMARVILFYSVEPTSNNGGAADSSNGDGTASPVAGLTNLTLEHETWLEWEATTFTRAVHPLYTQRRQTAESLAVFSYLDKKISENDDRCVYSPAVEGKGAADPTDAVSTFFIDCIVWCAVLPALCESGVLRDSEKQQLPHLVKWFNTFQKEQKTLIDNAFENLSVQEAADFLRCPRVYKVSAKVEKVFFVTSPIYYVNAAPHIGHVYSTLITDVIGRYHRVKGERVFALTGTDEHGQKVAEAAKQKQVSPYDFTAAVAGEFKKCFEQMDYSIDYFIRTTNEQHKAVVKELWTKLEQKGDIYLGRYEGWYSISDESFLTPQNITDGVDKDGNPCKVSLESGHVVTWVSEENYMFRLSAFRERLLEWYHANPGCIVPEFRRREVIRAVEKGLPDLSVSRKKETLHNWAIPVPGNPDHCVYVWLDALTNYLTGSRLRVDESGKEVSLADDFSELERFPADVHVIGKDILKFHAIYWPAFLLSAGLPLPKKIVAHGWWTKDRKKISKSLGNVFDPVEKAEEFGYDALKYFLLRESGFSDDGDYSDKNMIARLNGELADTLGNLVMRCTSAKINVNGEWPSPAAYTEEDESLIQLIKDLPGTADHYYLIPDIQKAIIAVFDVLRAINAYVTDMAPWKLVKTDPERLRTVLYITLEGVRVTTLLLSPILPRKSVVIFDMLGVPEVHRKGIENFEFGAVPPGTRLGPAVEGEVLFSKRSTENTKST

[8] = Luminescence Cell-Based Dose Retest to Confirm Inhibitors of Cancer Stem Cells. [Related pubchem assays (depositor defined):AID2717, AID2721]; format: functional; settings: Homo sapiens
[9] = target: T2, Methionyl-tRNA synthetase, putative; format: functional, Trypanosoma brucei brucei strain 927/4 GUTat10.1; remark: listed apart in the source
[10] = target: Genome polyprotein (dengue virus type 2, UniProt P29990); assay: flavivirus cap methylation enzyme inhibition – biochemical, confirmation dose response, primary screen (AID 588689); format: functional
[11] = target: T3, Corticotropin-releasing factor receptor 2/Corticotropin-releasing factor-binding protein (Homo sapiens, UniProt P24387+Q13324); assay: Dose Response confirmation of uHTS hits for small molecule antagonists of the CRF-binding protein and CRF-R2 receptor complex.; format: functional; settings: read-out: IC50_Mean
T3 sequence (Q13324 whole entry): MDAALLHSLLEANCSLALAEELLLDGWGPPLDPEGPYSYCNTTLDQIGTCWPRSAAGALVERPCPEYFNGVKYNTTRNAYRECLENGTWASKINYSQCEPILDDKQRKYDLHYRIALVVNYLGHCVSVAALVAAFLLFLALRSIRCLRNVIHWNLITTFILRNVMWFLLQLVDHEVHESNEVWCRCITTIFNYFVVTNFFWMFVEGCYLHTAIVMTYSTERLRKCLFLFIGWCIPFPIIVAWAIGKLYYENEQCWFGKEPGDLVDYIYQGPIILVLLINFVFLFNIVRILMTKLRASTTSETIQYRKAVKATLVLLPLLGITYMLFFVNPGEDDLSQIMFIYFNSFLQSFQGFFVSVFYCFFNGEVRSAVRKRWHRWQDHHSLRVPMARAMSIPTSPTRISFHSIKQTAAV
T3 sequence (P24387 whole entry): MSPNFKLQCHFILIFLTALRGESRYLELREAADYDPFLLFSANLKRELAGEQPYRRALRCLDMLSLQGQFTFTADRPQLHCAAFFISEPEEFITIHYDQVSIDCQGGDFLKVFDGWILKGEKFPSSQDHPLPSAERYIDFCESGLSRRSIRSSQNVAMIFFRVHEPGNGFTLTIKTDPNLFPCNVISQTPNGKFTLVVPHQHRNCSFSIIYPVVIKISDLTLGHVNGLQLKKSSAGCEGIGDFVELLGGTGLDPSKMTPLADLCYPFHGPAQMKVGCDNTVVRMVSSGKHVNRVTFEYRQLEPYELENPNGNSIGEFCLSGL

[12] = target: T4, Long-chain-fatty-acid--AMP ligase FadD28 (Mycobacterium tuberculosis, UniProt P9WQ59); assay: Fluorescence polarization aasay to screen for inhibitors that compete for the binding of FadD28 to a bisubstrate Measured in Biochemical System Using Plate Reader - 2147-01_Inhibitor_Dose_CherryPick_Activity.; format: functional, Mycobacterium tuberculosis H37Rv
T4 sequence (P9WQ59 whole entry): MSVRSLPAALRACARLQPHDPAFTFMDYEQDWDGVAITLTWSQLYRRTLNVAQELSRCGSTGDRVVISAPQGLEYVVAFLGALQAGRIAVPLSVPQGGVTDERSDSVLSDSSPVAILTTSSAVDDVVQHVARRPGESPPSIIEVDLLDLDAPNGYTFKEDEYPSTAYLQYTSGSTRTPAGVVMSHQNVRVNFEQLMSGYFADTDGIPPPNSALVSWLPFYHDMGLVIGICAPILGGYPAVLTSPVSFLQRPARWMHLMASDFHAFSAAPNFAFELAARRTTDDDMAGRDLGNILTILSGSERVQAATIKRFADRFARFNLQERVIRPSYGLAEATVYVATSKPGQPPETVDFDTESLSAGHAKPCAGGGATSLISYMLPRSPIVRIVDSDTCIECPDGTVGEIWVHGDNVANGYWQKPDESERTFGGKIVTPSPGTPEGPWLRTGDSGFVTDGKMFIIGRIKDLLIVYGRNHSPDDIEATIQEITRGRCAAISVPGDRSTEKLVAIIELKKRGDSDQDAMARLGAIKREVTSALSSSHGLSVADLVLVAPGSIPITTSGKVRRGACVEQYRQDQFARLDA

[13] = blockers of CRF-binding protein–CRF-R2 complex – cell-based, uHTS hits, 384-well, dose response (AID 651639); format: functional, Homo sapiens; settings: read-out: IC50_Mean
[14] = target: T3, Corticotropin-releasing factor receptor 2/Corticotropin-releasing factor-binding protein; assay: activators of CRF receptor 2 with binding protein – uHTS hits, confirmation (AID 602473); format: functional; settings: read-out: EC50_Mean
[15] = target: T5, Rac GTPase-activating protein 1 (Homo sapiens, UniProt Q9H0H5); assay: blockers of MgcRacGAP-driven Rac1 GTP hydrolysis – biochemical, ADP Hunter fluorescence, primary and confirmatory, confirmation (AID 624330); format: functional
T5 sequence (Q9H0H5 whole entry): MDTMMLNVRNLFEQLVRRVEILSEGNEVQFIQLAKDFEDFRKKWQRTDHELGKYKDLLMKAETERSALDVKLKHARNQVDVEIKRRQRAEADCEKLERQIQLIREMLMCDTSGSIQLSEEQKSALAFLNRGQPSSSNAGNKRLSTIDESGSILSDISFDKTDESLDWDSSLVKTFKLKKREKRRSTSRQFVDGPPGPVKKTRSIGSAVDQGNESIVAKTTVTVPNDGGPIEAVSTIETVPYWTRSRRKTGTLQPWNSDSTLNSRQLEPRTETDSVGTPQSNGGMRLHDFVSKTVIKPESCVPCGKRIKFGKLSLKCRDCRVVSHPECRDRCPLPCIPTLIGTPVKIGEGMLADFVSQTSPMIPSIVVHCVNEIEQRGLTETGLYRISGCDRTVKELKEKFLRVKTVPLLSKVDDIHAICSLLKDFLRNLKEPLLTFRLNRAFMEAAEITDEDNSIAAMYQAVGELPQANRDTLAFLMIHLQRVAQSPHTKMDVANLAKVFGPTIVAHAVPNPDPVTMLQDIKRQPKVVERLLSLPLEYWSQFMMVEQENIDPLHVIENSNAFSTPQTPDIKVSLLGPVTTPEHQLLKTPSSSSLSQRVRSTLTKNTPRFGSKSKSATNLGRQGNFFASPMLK

[16] = target: T6, Nuclear receptor subfamily 0 group B member 1 (Homo sapiens, UniProt P51843); format: functional, cell-based;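 note: HEK293T cells transfected with SF-1 and DAX-1 plus StAR promoter luciferase reporter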
T6 sequence (P51843 whole entry): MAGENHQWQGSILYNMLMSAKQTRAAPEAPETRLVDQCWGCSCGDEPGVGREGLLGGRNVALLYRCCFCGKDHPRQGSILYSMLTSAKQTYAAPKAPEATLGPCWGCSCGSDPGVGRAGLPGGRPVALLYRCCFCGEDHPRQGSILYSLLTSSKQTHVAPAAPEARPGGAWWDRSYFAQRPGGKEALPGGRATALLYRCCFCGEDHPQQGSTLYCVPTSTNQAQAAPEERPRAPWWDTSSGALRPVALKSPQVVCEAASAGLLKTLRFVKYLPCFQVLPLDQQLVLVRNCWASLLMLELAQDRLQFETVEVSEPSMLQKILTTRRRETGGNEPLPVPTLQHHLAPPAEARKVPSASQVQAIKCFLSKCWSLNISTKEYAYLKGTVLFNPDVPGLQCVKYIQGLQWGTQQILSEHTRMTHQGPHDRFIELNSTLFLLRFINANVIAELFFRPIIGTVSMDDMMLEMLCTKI

[17] = cells; format: functional, cell-based
[18] = test system: HEK293; assay: EBV LMP1 TES2 canonical NF-kB signalling blockers – cell-based, HEK293, luciferase, cherry-pick, dose response (AID 588343); format: functional; settings: Homo sapiens
[19] = target: Mu-type opioid receptor (Homo sapiens, UniProt P35372); format: functional, cell-based;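 note: U2OS cells with beta-arrestin recruitment to OPRM1 by beta-gal complementation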
[20] = viability loss in CEM21 cells – cell-based, CellTiter-Glo luminescence, cherry-picked, cytotoxicity control for viral fusion inhibitor project, dose response (AID 652042); format: functional;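 note: potency for signal decrease meaning cytotoxicity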
[21] = blockers of HIV-1 envelope-mediated cell-cell fusion – cherry-pick, dose response (AID 652057); format: functional, cell-based
[22] = blockers of HIV-1 ZM109 envelope-driven cell-cell fusion – HeLa effector, CEM target cells, luciferase, cherry-pick, dose response (AID 652058); format: functional, cell-based;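 note: luciferase signal from HIV-1 Env mediated cell-cell fusion of effector and target cells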
[23] = HIV-1 AD8 envelope cell-cell fusion blockers – cherry-pick, dose response (AID 652062); format: functional, cell-based;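 note: luciferase signal from cell-cell fusion driven by HIV-1 clade B AD8 Env; potency is for inhibitors of fusion seen as a drop in luminescence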
[24] = off-target signal loss in HeLa-CEM21 co-culture – HeLa F-luc CTL cells, cherry-picked, counter-screen for HIV-1 Env fusion inhibitor project, dose response (AID 652040); format: functional, cell-based;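 note: potency for signal decrease marking cytotoxic or nonspecific inhibition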

Fructose-bisphosphate aldolase, sequence (P9WQA3 whole entry, the tested form may be a part): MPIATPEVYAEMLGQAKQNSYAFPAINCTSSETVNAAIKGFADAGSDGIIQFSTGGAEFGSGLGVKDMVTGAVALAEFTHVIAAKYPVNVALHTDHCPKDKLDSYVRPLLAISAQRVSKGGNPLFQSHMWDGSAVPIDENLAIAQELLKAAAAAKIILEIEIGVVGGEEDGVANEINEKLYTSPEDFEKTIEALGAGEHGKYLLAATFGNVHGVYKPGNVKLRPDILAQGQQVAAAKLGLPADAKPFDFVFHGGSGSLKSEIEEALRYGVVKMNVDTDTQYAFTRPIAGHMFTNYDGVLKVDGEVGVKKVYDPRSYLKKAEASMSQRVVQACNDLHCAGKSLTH
Genome polyprotein, sequence (P29990 2492-3391 limits assumed): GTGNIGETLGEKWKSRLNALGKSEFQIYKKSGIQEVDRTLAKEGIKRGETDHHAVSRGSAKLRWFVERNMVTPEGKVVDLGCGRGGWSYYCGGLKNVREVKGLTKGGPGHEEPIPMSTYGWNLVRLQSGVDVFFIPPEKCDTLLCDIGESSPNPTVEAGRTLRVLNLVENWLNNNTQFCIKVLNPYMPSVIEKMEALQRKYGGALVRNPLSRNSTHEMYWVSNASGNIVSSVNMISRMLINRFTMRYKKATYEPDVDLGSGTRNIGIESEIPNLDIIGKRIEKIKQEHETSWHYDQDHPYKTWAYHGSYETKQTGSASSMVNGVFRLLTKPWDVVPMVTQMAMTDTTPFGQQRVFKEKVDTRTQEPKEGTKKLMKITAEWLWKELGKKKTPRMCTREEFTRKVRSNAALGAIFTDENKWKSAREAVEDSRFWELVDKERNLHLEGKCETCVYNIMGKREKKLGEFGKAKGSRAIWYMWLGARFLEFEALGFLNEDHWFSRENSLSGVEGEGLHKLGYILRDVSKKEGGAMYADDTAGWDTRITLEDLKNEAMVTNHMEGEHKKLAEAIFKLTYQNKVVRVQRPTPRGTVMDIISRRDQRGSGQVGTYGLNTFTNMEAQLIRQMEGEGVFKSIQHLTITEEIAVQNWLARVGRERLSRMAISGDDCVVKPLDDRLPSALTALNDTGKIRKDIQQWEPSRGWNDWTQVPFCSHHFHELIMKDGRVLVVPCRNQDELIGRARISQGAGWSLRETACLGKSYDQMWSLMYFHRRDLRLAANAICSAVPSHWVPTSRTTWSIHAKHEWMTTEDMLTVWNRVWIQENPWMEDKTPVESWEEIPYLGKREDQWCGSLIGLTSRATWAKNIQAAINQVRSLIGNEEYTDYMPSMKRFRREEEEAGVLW
Mu-type opioid receptor, sequence (P35372 whole entry, the tested form may be a part): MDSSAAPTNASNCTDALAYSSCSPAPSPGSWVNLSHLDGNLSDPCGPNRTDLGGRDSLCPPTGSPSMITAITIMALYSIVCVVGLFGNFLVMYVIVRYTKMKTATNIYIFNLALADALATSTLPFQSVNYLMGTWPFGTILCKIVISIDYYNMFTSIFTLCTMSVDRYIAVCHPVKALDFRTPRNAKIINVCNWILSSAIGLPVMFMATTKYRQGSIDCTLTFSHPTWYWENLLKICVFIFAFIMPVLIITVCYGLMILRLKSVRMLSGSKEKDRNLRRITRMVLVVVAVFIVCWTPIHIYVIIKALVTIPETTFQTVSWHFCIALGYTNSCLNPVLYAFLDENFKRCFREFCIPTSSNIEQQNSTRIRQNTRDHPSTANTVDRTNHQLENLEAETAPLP

COc1ccc(NC(=O)C2(C)Cc3c(-c4ccc(N(C)C)cc4)ccnc3O2)cc1OC (stereo not given)
IC50 [1]: 0.731 µM (active)

COc1ccccc1NC(=O)CONC(=N)CC(=O)NC1CCCCC1
IC50 [2]: 12.5 µM (active) | IC50 [3]: 14.1 µM (active)

CN(C)CCNc1cccc2sc3ccc(O)cc3c(=O)c12
IC50 [2]: 26 µM (inactive) | IC50 [3]: 37.8 µM (inactive)

CCCCN(CCCC)C(=O)CN(C)S(=O)(=O)c1ccc2c(c1)n(C)c(=O)c(=O)n2C
AC50 [4]: 1.4 µM (active)

O=C(COc1ccc(Cl)cc1Cl)N/N=C/c1ccc[nH]1
IC50 [5]: 22.2 µM (inactive) | AC50 [6]: 20.7 µM (active) | IC50 [7]: 13.2 µM (inactive) | AC50 [8]: 1.92 µM (active) | IC50 [9]: 22.4 µM (inactive)

C=CCOc1ccc(/C=C2\SC(=S)N(NS(=O)(=O)c3ccccc3)C2=O)cc1
IC50 [10]: 30.4 µM (active) | IC50 [11]: 3.68 µM (active) | AC50 [12]: > 100 µM (inactive) | IC50 [13]: 6.69 µM (active) | EC50 [14]: > 53 µM (inactive)

CCOc1cc(/C=N/NC(=O)c2ccccc2OCc2ccc(F)cc2)ccc1O
IC50 [15]: 78.5 µM (active) | IC50 [11]: 4.05 µM (active) | IC50 [13]: > 20 µM (inactive) | EC50 [14]: > 53 µM (inactive)

Cc1ccc(NC(=O)C(=O)Nc2ccccn2)cc1
IC50 [16]: > 67.6 µM (inactive) | IC50 [17]: > 67.6 µM (inactive) | AC50 [18]: 2.59 µM (active)

CC(CCc1ccc(O)cc1)NCCc1ccc(O)c(O)c1 (stereo not given) [DOBUTAMINE HYDROCHLORIDE]
EC50 [19]: 92.5 µM (inactive)

Cc1c(C)c2cc(Cl)c(OCC(=O)NCCCN3CCCC3=O)cc2oc1=O
IC50 [1]: 3.71 µM (active)

OCC1OC(n2ccc3c(NO)ncnc32)C(O)C1O (stereo not given)
AC50 [20]: 0.641 µM (active) | AC50 [21]: 2.35 µM (active) | AC50 [22]: 2.44 µM (active) | AC50 [23]: 4.53 µM (active) | AC50 [24]: 2.65 µM (active)
